According to PubChem BioAssay (NCI):
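Cells were grown in 96-well plates and exposed to each compound for 48 hours at five concentrations; endpoints were interpolated linearly between bracketing concentrations, or set to the highest concentration if not reached. Definition used: TGI = concentration required for complete inhibition of growth.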

What was measured:
Assay in all cases: NCI anticancer screen, dose series, 48 h
[1] = system: NCI-H460 lung
[2] = system: OVCAR-5 ovarian
[3] = system: NCI-H23 lung
[4] = system: SF-295 CNS
[5] = system: SF-268 CNS
[6] = system: M14 melanoma
[7] = system: SF-539 CNS
[8] = system: COLO 205 colon
[9] = system: SR leukemia
[10] = system: CCRF-CEM leukemia
[11] = system: SK-MEL-5 melanoma
[12] = system: UO-31 renal
[13] = system: TK-10 renal
[14] = system: MOLT-4 leukemia
[15] = system: PC-3 prostate
[16] = system: A498 renal
[17] = system: HOP-92 NSCLC
[18] = system: LOX IMVI melanoma
[19] = system: HS 578T breast
[20] = system: HL-60(TB) leukemia
[21] = system: K-562 leukemia
[22] = system: CAKI-1 renal
[23] = system: SN12C renal
[24] = system: MDA-N
[25] = system: SW-620 colon
[26] = system: EKVX NSCLC
[27] = system: HOP-62 NSCLC
[28] = system: MCF7 breast
[29] = system: SK-OV-3 ovarian
[30] = system: KM12 colon
[31] = system: SK-MEL-28 melanoma
[32] = system: OVCAR-3 ovarian
[33] = system: MALME-3M melanoma
[34] = system: SNB-19 CNS
[35] = system: ACHN renal
[36] = system: UACC-62 melanoma
[37] = system: IGROV1 ovarian
[38] = system: DU-145 prostate
[39] = system: 786-0 renal
[40] = system: T-47D breast
[41] = system: HCT-116 colon
[42] = system: RPMI-8226 leukemia
[43] = system: NCI-H226 lung
[44] = system: OVCAR-4 ovarian
[45] = system: A549 NSCLC
[46] = system: RXF 393 renal
[47] = system: NCI-H522 lung
[48] = system: SNB-75 CNS
[49] = system: MDA-MB-435
[50] = system: HCC-2998 colon
[51] = system: OVCAR-8 ovarian
[52] = system: UACC-257 melanoma
[53] = system: MDA-MB-231 breast
[54] = system: HT29 colon
[55] = system: NCI/ADR-RES ovarian
[56] = system: SK-MEL-2 melanoma
[57] = system: HCT-15 colon
[58] = system: U251 CNS

Measured: TGI

CC(CO)CCNc1ncnc2c1ncn2CCC#N (centres undefined)
not listed: [56] | [57] | [58]
> 100 µM: all other assays above

CC1=NN(c2cccc(Cl)c2)C2(C1=Cc1ccccc1)C(Cl)C(=O)N2c1nc2ccccc2s1 (centres undefined)
31.1 µM: [50]
40.5 µM: [54]
42.4 µM: [25] | [35]
28 µM: [46]
97.6 µM: [5]
41.1 µM: [49]
28.5 µM: [1]
31.5 µM: [3] | [57]
67.3 µM: [9]
33.2 µM: [38]
41.9 µM: [22]
67.8 µM: [43]
48.7 µM: [55]
31.9 µM: [12]
> 100 µM: [7] | [10] | [13] | [19] | [21] | [26] | [31] | [42] | [51]
45.3 µM: [27]
46.2 µM: [6]
52.3 µM: [4] | [29]
32.5 µM: [11]
33.7 µM: [30]
37.6 µM: [15]
66.4 µM: [20]
59.9 µM: [40]
55.8 µM: [2]
74.7 µM: [52]
31.6 µM: [17]
70.6 µM: [28]
32.9 µM: [39]
40.6 µM: [32]
42.8 µM: [16]
41.3 µM: [24]
85.9 µM: [14]
36 µM: [47]
51.3 µM: [53]
30.3 µM: [41]
64.7 µM: [44]
29.7 µM: [58]
64 µM: [18]
38.5 µM: [56]
43.7 µM: [37]

CCN(CC)CC1CCCCN1CC(=O)N1c2ccccc2NC(=O)c2ccccc21 (centres undefined)
44.5 µM: [12]
> 100 µM: all other assays above
